This note sets out measurements from ChEMBL document CHEMBL3525920, “CYP4F enzymes are responsible for the elimination of fingolimod (FTY720), a novel treatment of relapsing multiple sclerosis” (Drug Metab Dispos, 2011).

In one data set the target is Cytochrome P450 2C9 (Homo sapiens, UniProt P11712). Kind of data set: Activity at human recombinant CYP2C9 expressed in baculovirus-infected BTI-TN-5B1-4 insect cell microsomes assessed as metabolite formation at 5 to 100 uM after 30 mins by HPLC-RA analysis. It counts as ADME. The following applies: bti-tn-5b1-4, 0.5 h.
Another data set addresses Cytochrome P450 2J2 (Homo sapiens, UniProt P51589). Description: Activity at human recombinant CYP2J2 expressed in baculovirus-infected BTI-TN-5B1-4 insect cell microsomes assessed as metabolite formation at 5 to 100 uM after 30 mins by HPLC-RA analysis. The class given is ADME. To be noted: bti-tn-5b1-4, 0.5 h.
A further data set concerns the target Cytochrome P450 2E1 (Homo sapiens, UniProt P05181). Kind of data set: Activity at human recombinant CYP2E1 expressed in baculovirus-infected BTI-TN-5B1-4 insect cell microsomes assessed as metabolite formation at 5 to 100 uM after 30 mins by HPLC-RA analysis. The class given is ADME. To be noted: bti-tn-5b1-4, 0.5 h.
The target in another data set is Cytochrome P450 1A1 (Homo sapiens, UniProt P04798). Kind of data set: Activity at human recombinant CYP1A1 expressed in baculovirus-infected BTI-TN-5B1-4 insect cell microsomes assessed as metabolite formation at 5 to 100 uM after 30 mins by HPLC-RA analysis. To be noted: bti-tn-5b1-4, 0.5 h. The class given is ADME.
For data set [1], the system named is Liver microsome. Description: Drug metabolism in human liver microsomes assessed as total metabolite formation at 1 to 50 uM after 20 mins by HPLC-RA analysis in presence of CYP2C9 inhibitor sulfaphenazole. It counts as ADME. For orientation: Liver microsomes are vesicles of endoplasmic reticulum, rich in cytochrome P450 enzymes.
The target of data set [2] is T1, Cytochrome P450 2A6 (Homo sapiens, UniProt P11509). Description: Activity at human recombinant CYP2A6 expressed in baculovirus-infected BTI-TN-5B1-4 insect cell microsomes assessed as metabolite formation at 5 to 100 uM after 30 mins by HPLC-RA analysis. To be noted: bti-tn-5b1-4, 0.5 h. It counts as ADME.
Another data set concerns the target Cytochrome P450 4F12 (Homo sapiens, UniProt Q9HCS2). Kind of data set: Activity at human recombinant CYP4F12 expressed in baculovirus-infected BTI-TN-5B1-4 insect cell microsomes at 10 uM by HPLC-RA analysis in presence of CYP4F2 and CYP4F12 inhibitor ketoconazole. It counts as ADME. The following applies: bti-tn-5b1-4, 10 µM.
Data set [3] relates to Liver microsome. Kind of data set: Drug metabolism in human liver microsomes assessed as metabolite formation at 50 uM treated 15 mins after antibody addition measured after 20 mins by HPLC-RA analysis in presence of CYP2D6-specific monoclonal antibody. The class given is ADME.
The target of another data set is Cytochrome P450 2C18 (Homo sapiens, UniProt P33260). Kind of data set: Activity at human recombinant CYP2C18 expressed in baculovirus-infected BTI-TN-5B1-4 insect cell microsomes assessed as metabolite formation at 5 to 100 uM after 30 mins by HPLC-RA analysis. The class given is ADME. The following applies: bti-tn-5b1-4, 0.5 h.
A short description of data set [4]: Activity at FMO in human liver microsomes isolated from donors assessed as metabolite formation after 24 mins by HPLC-RA analysis. To be noted: 0.4 h. The class given is ADME.
The nature of data set [5]: Activity at CYP4F in human liver microsomes assessed as metabolite formation after 15 mins by Eadie-Hofstee plot analysis. The class given is ADME. To be noted: 0.25 h.
The target in data set [6] is T1, Cytochrome P450 2A6. Description: Activity at CYP2A6 in human liver microsomes isolated from donors assessed as metabolite formation after 24 mins by HPLC-RA analysis. It counts as ADME. To be noted: 0.4 h.
Data set [7] has as its target T2, Cytochrome P450 4F2 (Homo sapiens, UniProt P78329).
T2 sequence (P78329 whole entry): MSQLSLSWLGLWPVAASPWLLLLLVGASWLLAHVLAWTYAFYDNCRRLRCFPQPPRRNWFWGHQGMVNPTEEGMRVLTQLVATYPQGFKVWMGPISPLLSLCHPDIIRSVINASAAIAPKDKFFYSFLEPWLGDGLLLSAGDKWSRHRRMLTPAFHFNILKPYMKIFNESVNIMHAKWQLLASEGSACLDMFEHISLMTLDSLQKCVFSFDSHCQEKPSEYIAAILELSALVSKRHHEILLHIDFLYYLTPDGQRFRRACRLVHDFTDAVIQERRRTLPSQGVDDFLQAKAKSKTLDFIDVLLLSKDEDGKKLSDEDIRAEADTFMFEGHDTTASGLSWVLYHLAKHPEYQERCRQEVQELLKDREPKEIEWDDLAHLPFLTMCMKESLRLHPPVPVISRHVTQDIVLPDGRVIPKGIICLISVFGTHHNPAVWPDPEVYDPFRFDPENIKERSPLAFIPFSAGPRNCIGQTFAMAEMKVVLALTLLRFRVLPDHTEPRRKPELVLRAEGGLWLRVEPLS
Kind of data set: Activity at human recombinant CYP4F2 expressed in baculovirus-infected BTI-TN-5B1-4 insect cell microsomes assessed as intrinsic clearance for metabolite formation after 15 mins measured per nmol of P450 by Eadie-Hofstee plot analysis. The class given is ADME. To be noted: bti-tn-5b1-4, 0.25 h.

Data set [8] has as its system Liver microsome. Description: Drug metabolism in human liver microsomes assessed as total metabolite formation at 1 to 50 uM after 20 mins by HPLC-RA analysis in presence of CYP2C19 inhibitor tranylcypromine. It counts as ADME.
The target of data set [9] is T2, Cytochrome P450 4F2. Description: Activity at human recombinant CYP4F2 expressed in baculovirus-infected BTI-TN-5B1-4 insect cell microsomes at 10 uM by HPLC-RA analysis in presence of CYP4F2 and CYP4F12 inhibitor ketoconazole. The class given is ADME. To be noted: bti-tn-5b1-4, 10 µM.
The next data set deals with Cytochrome P450 2B6 (Homo sapiens, UniProt P20813). Description: Activity at human recombinant CYP2B6 expressed in baculovirus-infected BTI-TN-5B1-4 insect cell microsomes assessed as metabolite formation at 5 to 100 uM after 30 mins by HPLC-RA analysis. The class given is ADME. To be noted: bti-tn-5b1-4, 0.5 h.
The next data set addresses Cytochrome P450 3A5 (Homo sapiens, UniProt P20815). Description: Activity at human recombinant CYP3A5 expressed in baculovirus-infected BTI-TN-5B1-4 insect cell microsomes assessed as metabolite formation at 5 to 100 uM after 30 mins by HPLC-RA analysis. The class given is ADME. The following applies: bti-tn-5b1-4, 0.5 h.
Data set [10] has as its system Liver microsome. Description: Drug metabolism in human liver microsomes assessed as metabolite M12 (2-amino-2-(4-(8-hydroxyoctyl)phenethyl)propane-1,3-diol) formation at 20 uM after 30 mins by HPLC-RA analysis in presence of NADPH. It counts as ADME. To be noted: 0.5 h.
A further data set addresses Cytochrome P450 3A4 (Homo sapiens, UniProt P08684). Kind of data set: Activity at human recombinant CYP3A4 expressed in baculovirus-infected BTI-TN-5B1-4 insect cell microsomes assessed as metabolite formation at 5 to 100 uM after 30 mins by HPLC-RA analysis. It counts as ADME. The following applies: bti-tn-5b1-4, 0.5 h.
Data set [11] is described as follows: Retention time of the compound by C18 advantage armor column based LC-MS analysis. The class given is physicochemical.
A further data set deals with Cytochrome P450 2C19 (Homo sapiens, UniProt P33261). Description: Activity at human recombinant CYP2C19 expressed in baculovirus-infected BTI-TN-5B1-4 insect cell microsomes assessed as metabolite formation at 5 to 100 uM after 30 mins by HPLC-RA analysis. It counts as ADME. The following applies: bti-tn-5b1-4, 0.5 h.
Data set [12] addresses T2, Cytochrome P450 4F2. Kind of data set: Activity at human recombinant CYP4F2 expressed in baculovirus-infected BTI-TN-5B1-4 insect cell microsomes assessed as metabolite formation at 50 uM by HPLC-RA analysis in presence of anti-CYP4F2. To be noted: bti-tn-5b1-4, 50 µM. It counts as ADME.
The target of a further data set is Cytochrome P450 1A2 (Homo sapiens, UniProt P05177). Description: Activity at human recombinant CYP1A2 expressed in baculovirus-infected BTI-TN-5B1-4 insect cell microsomes assessed as metabolite formation at 5 to 100 uM after 30 mins by HPLC-RA analysis. The class given is ADME. To be noted: bti-tn-5b1-4, 0.5 h.
Sequence of Cytochrome P450 1A2 (P05177 whole entry): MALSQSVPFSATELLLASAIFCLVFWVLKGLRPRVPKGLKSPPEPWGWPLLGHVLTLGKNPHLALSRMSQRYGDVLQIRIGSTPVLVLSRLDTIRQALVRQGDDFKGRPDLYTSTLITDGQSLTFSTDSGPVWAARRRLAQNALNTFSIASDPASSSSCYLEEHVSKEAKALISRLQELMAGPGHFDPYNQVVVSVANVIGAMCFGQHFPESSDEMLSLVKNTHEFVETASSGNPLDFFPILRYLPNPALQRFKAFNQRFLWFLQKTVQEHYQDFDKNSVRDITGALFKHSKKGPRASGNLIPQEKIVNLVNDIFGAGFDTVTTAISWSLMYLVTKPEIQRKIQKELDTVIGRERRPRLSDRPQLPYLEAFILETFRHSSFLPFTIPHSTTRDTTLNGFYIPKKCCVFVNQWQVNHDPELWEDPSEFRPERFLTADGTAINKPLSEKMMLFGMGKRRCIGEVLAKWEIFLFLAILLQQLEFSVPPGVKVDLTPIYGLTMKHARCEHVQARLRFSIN

T1 sequence (P11509 whole entry): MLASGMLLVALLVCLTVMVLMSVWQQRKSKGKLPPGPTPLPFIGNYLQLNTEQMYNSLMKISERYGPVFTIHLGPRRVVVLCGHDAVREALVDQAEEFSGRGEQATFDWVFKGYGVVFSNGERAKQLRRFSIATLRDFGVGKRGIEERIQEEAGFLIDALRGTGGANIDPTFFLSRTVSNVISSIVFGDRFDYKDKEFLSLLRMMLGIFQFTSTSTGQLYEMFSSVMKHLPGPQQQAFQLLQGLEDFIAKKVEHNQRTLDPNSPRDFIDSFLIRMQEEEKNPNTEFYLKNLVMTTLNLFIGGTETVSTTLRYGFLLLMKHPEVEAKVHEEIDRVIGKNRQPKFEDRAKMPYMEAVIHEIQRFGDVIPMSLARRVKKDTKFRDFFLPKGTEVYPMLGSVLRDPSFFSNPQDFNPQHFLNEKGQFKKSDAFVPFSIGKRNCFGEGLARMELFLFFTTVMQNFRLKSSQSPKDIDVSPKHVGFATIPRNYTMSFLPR
Sequence of Cytochrome P450 2C18 (P33260 whole entry): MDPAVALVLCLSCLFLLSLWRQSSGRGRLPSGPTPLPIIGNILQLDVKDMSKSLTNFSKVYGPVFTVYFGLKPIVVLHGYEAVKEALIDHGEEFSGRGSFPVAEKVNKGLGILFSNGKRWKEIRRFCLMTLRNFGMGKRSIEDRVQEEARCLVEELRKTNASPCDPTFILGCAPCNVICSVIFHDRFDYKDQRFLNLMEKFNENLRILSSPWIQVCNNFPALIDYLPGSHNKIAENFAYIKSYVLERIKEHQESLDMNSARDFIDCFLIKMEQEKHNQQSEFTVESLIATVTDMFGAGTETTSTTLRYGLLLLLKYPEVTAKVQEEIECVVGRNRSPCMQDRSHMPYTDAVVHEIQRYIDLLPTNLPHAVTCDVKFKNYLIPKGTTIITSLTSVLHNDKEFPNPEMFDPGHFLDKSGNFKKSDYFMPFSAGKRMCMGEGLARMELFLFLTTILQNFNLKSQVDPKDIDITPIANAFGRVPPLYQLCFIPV
Sequence of Cytochrome P450 2J2 (P51589 whole entry): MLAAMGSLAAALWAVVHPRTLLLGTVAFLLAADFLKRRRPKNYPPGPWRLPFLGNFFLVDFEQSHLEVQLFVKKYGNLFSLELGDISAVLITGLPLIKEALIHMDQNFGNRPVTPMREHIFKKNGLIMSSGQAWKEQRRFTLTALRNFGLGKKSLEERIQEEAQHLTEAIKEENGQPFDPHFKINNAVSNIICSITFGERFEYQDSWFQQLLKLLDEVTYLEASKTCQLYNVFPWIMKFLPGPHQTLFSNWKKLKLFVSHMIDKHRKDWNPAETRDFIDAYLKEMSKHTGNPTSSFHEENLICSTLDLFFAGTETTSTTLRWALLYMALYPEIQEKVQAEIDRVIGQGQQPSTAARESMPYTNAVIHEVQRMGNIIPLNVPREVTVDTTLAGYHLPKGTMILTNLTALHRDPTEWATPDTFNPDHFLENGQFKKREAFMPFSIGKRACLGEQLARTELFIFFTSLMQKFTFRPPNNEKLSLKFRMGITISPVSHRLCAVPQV
Sequence of Cytochrome P450 3A4 (P08684 whole entry): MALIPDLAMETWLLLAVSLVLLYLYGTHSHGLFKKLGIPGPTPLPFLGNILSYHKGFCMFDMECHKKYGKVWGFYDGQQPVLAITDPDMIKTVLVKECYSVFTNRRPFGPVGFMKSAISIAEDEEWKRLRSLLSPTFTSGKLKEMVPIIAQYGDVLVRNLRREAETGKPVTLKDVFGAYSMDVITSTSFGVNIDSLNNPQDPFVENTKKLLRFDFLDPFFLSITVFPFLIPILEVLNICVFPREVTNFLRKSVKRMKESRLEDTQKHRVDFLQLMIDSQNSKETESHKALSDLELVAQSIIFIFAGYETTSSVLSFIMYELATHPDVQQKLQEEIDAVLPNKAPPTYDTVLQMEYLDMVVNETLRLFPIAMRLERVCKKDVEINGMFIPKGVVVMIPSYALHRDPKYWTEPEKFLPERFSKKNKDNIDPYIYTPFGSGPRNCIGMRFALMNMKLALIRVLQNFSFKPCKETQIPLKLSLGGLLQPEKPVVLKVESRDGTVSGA
Sequence of Cytochrome P450 3A5 (P20815 whole entry): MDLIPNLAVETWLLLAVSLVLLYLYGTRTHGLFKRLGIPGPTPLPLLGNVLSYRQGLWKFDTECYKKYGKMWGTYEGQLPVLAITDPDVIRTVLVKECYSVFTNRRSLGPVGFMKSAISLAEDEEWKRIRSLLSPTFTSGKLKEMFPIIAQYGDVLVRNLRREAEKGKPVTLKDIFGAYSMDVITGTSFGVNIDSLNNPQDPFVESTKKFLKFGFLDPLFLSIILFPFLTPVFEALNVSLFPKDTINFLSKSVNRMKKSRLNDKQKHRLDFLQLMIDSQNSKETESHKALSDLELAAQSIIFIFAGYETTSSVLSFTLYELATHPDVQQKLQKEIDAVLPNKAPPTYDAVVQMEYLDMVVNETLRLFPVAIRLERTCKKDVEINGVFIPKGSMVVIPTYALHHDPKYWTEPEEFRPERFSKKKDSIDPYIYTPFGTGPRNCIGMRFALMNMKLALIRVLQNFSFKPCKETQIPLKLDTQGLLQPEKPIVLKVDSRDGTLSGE
Sequence of Cytochrome P450 2E1 (P05181 whole entry): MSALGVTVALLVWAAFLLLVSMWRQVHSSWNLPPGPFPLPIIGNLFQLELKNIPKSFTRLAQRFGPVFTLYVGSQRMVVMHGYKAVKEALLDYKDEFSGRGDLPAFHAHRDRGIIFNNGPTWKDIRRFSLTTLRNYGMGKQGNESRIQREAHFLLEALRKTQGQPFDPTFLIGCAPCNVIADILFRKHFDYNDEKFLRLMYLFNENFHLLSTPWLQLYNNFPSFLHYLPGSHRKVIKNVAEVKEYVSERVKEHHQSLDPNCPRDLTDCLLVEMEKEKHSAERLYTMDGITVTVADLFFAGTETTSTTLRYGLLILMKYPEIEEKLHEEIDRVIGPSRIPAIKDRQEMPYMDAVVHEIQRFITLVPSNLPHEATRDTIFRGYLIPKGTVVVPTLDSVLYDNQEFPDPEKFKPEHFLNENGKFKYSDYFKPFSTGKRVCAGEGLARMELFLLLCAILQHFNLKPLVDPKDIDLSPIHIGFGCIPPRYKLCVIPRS
Sequence of Cytochrome P450 2C9 (P11712 whole entry): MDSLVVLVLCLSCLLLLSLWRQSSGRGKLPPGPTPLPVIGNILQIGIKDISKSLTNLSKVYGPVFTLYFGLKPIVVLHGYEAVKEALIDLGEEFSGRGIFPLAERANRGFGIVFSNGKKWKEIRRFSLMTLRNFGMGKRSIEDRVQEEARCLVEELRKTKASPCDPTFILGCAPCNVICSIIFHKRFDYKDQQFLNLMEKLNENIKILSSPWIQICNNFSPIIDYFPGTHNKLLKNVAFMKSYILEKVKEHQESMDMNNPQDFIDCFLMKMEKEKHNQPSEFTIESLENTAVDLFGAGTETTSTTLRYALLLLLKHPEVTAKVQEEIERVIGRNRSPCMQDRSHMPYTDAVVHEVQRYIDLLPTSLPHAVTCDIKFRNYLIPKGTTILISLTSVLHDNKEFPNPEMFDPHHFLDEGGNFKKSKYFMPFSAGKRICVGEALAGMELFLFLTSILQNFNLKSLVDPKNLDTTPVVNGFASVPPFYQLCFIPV
Sequence of Cytochrome P450 2C19 (P33261 whole entry): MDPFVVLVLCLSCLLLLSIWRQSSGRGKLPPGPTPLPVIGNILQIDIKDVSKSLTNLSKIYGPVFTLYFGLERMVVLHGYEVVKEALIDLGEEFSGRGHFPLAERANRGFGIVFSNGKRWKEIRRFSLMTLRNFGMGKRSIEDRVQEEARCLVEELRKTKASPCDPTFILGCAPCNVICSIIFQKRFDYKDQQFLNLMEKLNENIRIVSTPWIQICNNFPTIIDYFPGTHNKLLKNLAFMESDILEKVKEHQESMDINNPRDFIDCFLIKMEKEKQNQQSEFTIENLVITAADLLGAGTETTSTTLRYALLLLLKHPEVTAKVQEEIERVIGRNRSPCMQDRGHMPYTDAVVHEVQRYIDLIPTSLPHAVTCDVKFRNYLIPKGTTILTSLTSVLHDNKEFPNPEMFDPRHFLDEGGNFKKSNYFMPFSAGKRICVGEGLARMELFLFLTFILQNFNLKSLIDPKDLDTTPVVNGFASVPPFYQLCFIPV
Sequence of Cytochrome P450 2B6 (P20813 whole entry): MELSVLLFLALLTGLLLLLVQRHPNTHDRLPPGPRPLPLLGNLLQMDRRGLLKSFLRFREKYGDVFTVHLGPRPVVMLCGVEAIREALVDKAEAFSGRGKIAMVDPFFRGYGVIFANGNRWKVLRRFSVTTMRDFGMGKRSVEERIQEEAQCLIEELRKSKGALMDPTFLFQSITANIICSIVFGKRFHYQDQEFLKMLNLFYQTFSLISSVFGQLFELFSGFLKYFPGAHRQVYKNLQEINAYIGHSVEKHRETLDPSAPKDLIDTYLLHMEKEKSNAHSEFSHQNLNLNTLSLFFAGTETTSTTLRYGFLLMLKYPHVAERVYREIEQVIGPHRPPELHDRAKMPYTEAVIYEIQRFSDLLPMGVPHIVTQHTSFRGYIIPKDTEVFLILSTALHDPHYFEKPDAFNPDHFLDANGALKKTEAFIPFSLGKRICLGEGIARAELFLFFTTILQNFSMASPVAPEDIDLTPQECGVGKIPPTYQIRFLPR

One may read the Km as the concentration of substrate that gives half-maximal velocity. Consider `CCCCCCCCc1ccc(CC[14C](N)(CO)CO)cc1.Cl`, for which the Drug metabolism result at Cytochrome P450 2C9 is reported as “metabolite_not_detected”; on Cytochrome P450 2J2, “metabolite_not_detected”; on Cytochrome P450 2E1 it was “metabolite_detected”; on Cytochrome P450 1A1, “metabolite_not_detected”; in the data set on Liver microsome [1] it was “metabolite_detected”; at Cytochrome P450 2A6 [2], “metabolite_not_detected”. Also, the Drug metabolism entry at Cytochrome P450 4F12 was “metabolite_not_detected”; in the data set with Liver microsome [3] it was “metabolite_detected”; at Cytochrome P450 2C18, “metabolite_not_detected”; in [4] it was “metabolite_not_detected”; at Cytochrome P450 2A6 [6], “metabolite_not_detected”; in the data set with Liver microsome [8], “metabolite_detected”. For the same compound, the Drug metabolism entry at Cytochrome P450 4F2 [9] is “metabolite_not_detected”; at Cytochrome P450 2B6, “metabolite_not_detected”; on Cytochrome P450 3A5, “metabolite_not_detected”; in the data set on Liver microsome [10] it was “metabolite_detected”; on Cytochrome P450 3A4, “metabolite_detected”; on Cytochrome P450 2C19, “metabolite_not_detected”. The Drug metabolism entry at Cytochrome P450 4F2 [12] and on Cytochrome P450 1A2 was “metabolite_not_detected” throughout. In addition, the Km in data set [5] stood at 183 µM. For the same compound, the CL at Cytochrome P450 4F2 [7] turned out to be 23 µL/min. Further, in [11], the Retention_time is recorded as 42.7 min.
